According to ChEMBL document CHEMBL1201862, “PubChem BioAssay data set” (2004):
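Exposure lasted 48 hours, with cells grown in 96-well plates and compounds tested at five concentrations. GI50 marks 50% less growth.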 Activity calls are given as the source filed them. Rule as the data show it: active = GI50 up to about 1.1 µM and inactive = higher.

Experiments:
Assay in all cases: DTP human tumour cell line panel, 48 h
SK-MEL-2 = tested on: SK-MEL-2
HOP-92 = tested on: HOP-92
NCI-H460 = tested on: NCI-H460
K562 = tested on: K562
LOX IMVI = tested on: LOX IMVI
KM12 = tested on: KM12
OVCAR-3 = tested on: OVCAR-3
SK-MEL-5 = tested on: SK-MEL-5
COLO 205 = tested on: COLO 205
A498 = tested on: A498
HOP-18 = tested on: HOP-18
UACC-257 = tested on: UACC-257
HOP-62 = tested on: HOP-62
RPMI-8226 = tested on: RPMI-8226
SK-OV-3 = tested on: SK-OV-3
DMS-273 = tested on: DMS-273
NCI-H522 = tested on: NCI-H522
UO-31 = tested on: UO-31
MDA-N = tested on: MDA-N
HL-60 = tested on: HL-60

Row | Structure (SMILES) | GI50 (SK-MEL-2) | GI50 (HOP-92) | GI50 (NCI-H460) | GI50 (K562) | GI50 (LOX IMVI) | GI50 (KM12) | GI50 (OVCAR-3) | GI50 (SK-MEL-5) | GI50 (COLO 205) | GI50 (A498) | GI50 (HOP-18) | GI50 (UACC-257) | GI50 (HOP-62) | GI50 (RPMI-8226) | GI50 (SK-OV-3) | GI50 (DMS-273) | GI50 (NCI-H522) | GI50 (UO-31) | GI50 (MDA-N) | GI50 (HL-60)
1 | CSC(=N)NNC(=O)CCC(=O)Nc1ccccc1C(F)(F)F | > 100 µM (inactive) | > 100 µM (inactive) | > 100 µM (inactive) | > 100 µM (inactive) | > 100 µM (inactive) | > 100 µM (inactive) | > 100 µM (inactive) | > 100 µM (inactive) | > 100 µM (inactive) | > 100 µM (inactive) | > 100 µM (inactive) | > 100 µM (inactive) | > 100 µM (inactive) | > 100 µM (inactive) | > 100 µM (inactive) | > 100 µM (inactive) | > 100 µM (inactive) | > 100 µM (inactive) | – | –
2 | C(/C=N/c1ccccc1)=C(/Nc1ccccc1)C12CC3CC(CC(C3)C1)C2 | – | 25.2 µM (inactive) | 23.6 µM (inactive) | 7.23 µM (inactive) | 12.9 µM (inactive) | 17 µM (inactive) | 6.85 µM (inactive) | 14.7 µM (inactive) | 15.9 µM (inactive) | 23.8 µM (inactive) | – | 27.9 µM (inactive) | 19.2 µM (inactive) | – | 16.4 µM (inactive) | – | 10.4 µM (inactive) | 15.1 µM (inactive) | 13.8 µM (inactive) | 12.1 µM (inactive)
3 | CCN(CC)CC(=N)N(CC)c1ccccc1 | > 100 µM (inactive) | > 100 µM (inactive) | > 100 µM (inactive) | > 100 µM (inactive) | > 100 µM (inactive) | > 100 µM (inactive) | > 100 µM (inactive) | > 100 µM (inactive) | > 100 µM (inactive) | > 100 µM (inactive) | > 100 µM (inactive) | 43.6 µM (inactive) | > 100 µM (inactive) | > 100 µM (inactive) | > 100 µM (inactive) | – | > 100 µM (inactive) | > 100 µM (inactive) | – | > 100 µM (inactive)
4 | CCN(CC)Cc1ccc2cccnc2c1O | 20.1 µM (inactive) | 11.6 µM (inactive) | 3.82 µM (inactive) | 2.15 µM (inactive) | 3.84 µM (inactive) | – | 2.88 µM (inactive) | 3.54 µM (inactive) | 15.7 µM (inactive) | 16.3 µM (inactive) | – | 4.91 µM (inactive) | 4.5 µM (inactive) | 3.1 µM (inactive) | 7.01 µM (inactive) | – | 0.37 µM (active) | 1.88 µM (inactive) | 10.6 µM (inactive) | 0.43 µM (active)
5 | CCN1CCC(O)(/C=C/c2ccccc2C)C(C(=O)/C=C/c2ccccc2C)C1 (configuration not stated) | 2.33 µM (inactive) | 1.34 µM (inactive) | 1.53 µM (inactive) | 3.07 µM (inactive) | 1.68 µM (inactive) | – | 2.25 µM (inactive) | 1.56 µM (inactive) | 1.64 µM (inactive) | 1.91 µM (inactive) | – | 2.9 µM (inactive) | 1.94 µM (inactive) | – | 6.14 µM (inactive) | – | – | 1.63 µM (inactive) | 2.67 µM (inactive) | 2.01 µM (inactive)
6 | O=Cc1ccc(CCl)cc1 | 17.2 µM (inactive) | 27.7 µM (inactive) | 18.6 µM (inactive) | 27.1 µM (inactive) | 11 µM (inactive) | 23.5 µM (inactive) | 19.1 µM (inactive) | 16.6 µM (inactive) | 48 µM (inactive) | 29 µM (inactive) | 14.4 µM (inactive) | 17.7 µM (inactive) | – | – | 22.1 µM (inactive) | 19.8 µM (inactive) | 19.7 µM (inactive) | 16.7 µM (inactive) | – | 4.56 µM (inactive)
7 | Nc1ccc(C2(c3ccc(N)cc3)C3CC4CC(C3)CC2C4)cc1 | 18.5 µM (inactive) | 12.4 µM (inactive) | – | 10.3 µM (inactive) | 16.2 µM (inactive) | 0.0975 µM (active) | 10.9 µM (inactive) | – | – | 21 µM (inactive) | – | 19.2 µM (inactive) | 13.6 µM (inactive) | – | 13.4 µM (inactive) | – | 15.6 µM (inactive) | 18.2 µM (inactive) | 18.6 µM (inactive) | 19.2 µM (inactive)
8 | COc1ccc(/C=C/c2cnccn2)cc1OC | > 10 µM (inactive) | > 10 µM (inactive) | > 10 µM (inactive) | – | > 10 µM (inactive) | > 10 µM (inactive) | > 10 µM (inactive) | > 10 µM (inactive) | > 10 µM (inactive) | > 10 µM (inactive) | – | > 10 µM (inactive) | > 10 µM (inactive) | – | > 10 µM (inactive) | – | > 10 µM (inactive) | > 10 µM (inactive) | > 10 µM (inactive) | –
9 | NC(=O)c1coc(C2OC(CO)C(O)C2O)n1 (configuration not stated) | > 100 µM (inactive) | > 100 µM (inactive) | > 100 µM (inactive) | > 100 µM (inactive) | > 100 µM (inactive) | > 100 µM (inactive) | > 100 µM (inactive) | – | > 100 µM (inactive) | > 100 µM (inactive) | > 100 µM (inactive) | – | > 100 µM (inactive) | > 100 µM (inactive) | > 100 µM (inactive) | > 100 µM (inactive) | > 100 µM (inactive) | > 100 µM (inactive) | – | > 100 µM (inactive)
10 | O=C(NC1C(O)C(O)C(CO)OC1n1cc(F)c(=O)[nH]c1=O)OCc1ccccc1 (configuration not stated) | > 100 µM (inactive) | > 100 µM (inactive) | > 100 µM (inactive) | – | > 100 µM (inactive) | > 100 µM (inactive) | – | > 100 µM (inactive) | > 100 µM (inactive) | > 100 µM (inactive) | > 100 µM (inactive) | > 100 µM (inactive) | > 100 µM (inactive) | > 100 µM (inactive) | > 100 µM (inactive) | > 100 µM (inactive) | > 100 µM (inactive) | – | – | > 100 µM (inactive)
11 | CCN(CC)CCN(C(=O)c1ccc(F)cc1)c1ccccc1N | > 10 µM (inactive) | – | > 10 µM (inactive) | > 10 µM (inactive) | > 10 µM (inactive) | > 10 µM (inactive) | > 10 µM (inactive) | > 10 µM (inactive) | > 10 µM (inactive) | > 10 µM (inactive) | – | – | > 10 µM (inactive) | > 10 µM (inactive) | > 10 µM (inactive) | – | > 10 µM (inactive) | > 10 µM (inactive) | > 10 µM (inactive) | > 10 µM (inactive)
12 | COc1cc(C2c3cc4c(cc3OC(N3CCCCC3)C2C)OCO4)cc(OC)c1OC (configuration not stated) | 3.45 µM (inactive) | 10.4 µM (inactive) | 3.52 µM (inactive) | 2.44 µM (inactive) | 4.85 µM (inactive) | 2.88 µM (inactive) | 1.9 µM (inactive) | 2.62 µM (inactive) | 3.02 µM (inactive) | 3.38 µM (inactive) | – | 12.3 µM (inactive) | 2.85 µM (inactive) | 4.18 µM (inactive) | 2.77 µM (inactive) | – | 2.49 µM (inactive) | 5.02 µM (inactive) | 0.723 µM (active) | 2.33 µM (inactive)
13 | CC1CCC(O)/C=C/C(=O)OC(C)C(O)/C=C/C(=O)O1 (configuration not stated) | > 100 µM (inactive) | 52.8 µM (inactive) | > 100 µM (inactive) | 41.9 µM (inactive) | > 100 µM (inactive) | > 100 µM (inactive) | 57.1 µM (inactive) | > 100 µM (inactive) | 64 µM (inactive) | > 100 µM (inactive) | – | > 100 µM (inactive) | > 100 µM (inactive) | 74.1 µM (inactive) | > 100 µM (inactive) | – | 35.6 µM (inactive) | > 100 µM (inactive) | > 95.9 µM (inactive) | 37.2 µM (inactive)
14 | O=C(O)C(C(=O)O)P(=S)(S)c1ccccc1 (configuration not stated) | > 100 µM (inactive) | > 100 µM (inactive) | > 100 µM (inactive) | > 100 µM (inactive) | > 100 µM (inactive) | > 100 µM (inactive) | > 100 µM (inactive) | > 31.6 µM (inactive) | > 100 µM (inactive) | > 100 µM (inactive) | – | > 100 µM (inactive) | > 100 µM (inactive) | > 100 µM (inactive) | > 100 µM (inactive) | > 100 µM (inactive) | > 100 µM (inactive) | > 100 µM (inactive) | > 100 µM (inactive) | > 100 µM (inactive)
15 | NCCCCN(CCCN)Cc1ccccc1 | > 100 µM (inactive) | > 100 µM (inactive) | > 100 µM (inactive) | > 100 µM (inactive) | – | > 100 µM (inactive) | > 100 µM (inactive) | > 100 µM (inactive) | > 100 µM (inactive) | > 100 µM (inactive) | – | > 100 µM (inactive) | > 100 µM (inactive) | > 100 µM (inactive) | > 100 µM (inactive) | – | > 100 µM (inactive) | > 100 µM (inactive) | – | > 100 µM (inactive)
16 | Nc1ncnc2c1ncn2C=C=CCO | > 100 µM (inactive) | > 100 µM (inactive) | > 100 µM (inactive) | > 100 µM (inactive) | > 100 µM (inactive) | > 100 µM (inactive) | > 100 µM (inactive) | > 100 µM (inactive) | > 100 µM (inactive) | > 100 µM (inactive) | – | > 100 µM (inactive) | > 100 µM (inactive) | > 100 µM (inactive) | – | – | – | > 100 µM (inactive) | > 100 µM (inactive) | –
17 | Cn1ccc(C(=O)NCCN(CCNC(=O)c2ccn(C)c(=O)c2O)CCNC(=O)c2ccn(C)c(=O)c2O)c(O)c1=O | > 100 µM (inactive) | > 100 µM (inactive) | > 100 µM (inactive) | > 100 µM (inactive) | – | > 100 µM (inactive) | > 100 µM (inactive) | > 100 µM (inactive) | > 100 µM (inactive) | > 100 µM (inactive) | – | > 100 µM (inactive) | > 100 µM (inactive) | > 100 µM (inactive) | > 100 µM (inactive) | – | > 100 µM (inactive) | > 100 µM (inactive) | > 100 µM (inactive) | > 100 µM (inactive)
